{"source": "paper PMC9714295", "about": "“DadY (PA5303) is required for fitness of Pseudomonas aeruginosa when growth is dependent on alanine catabolism” (Microbial Cell, 2022)", "key": {"[1]": {"biological_target": "T1, DadA (Pseudomonas aeruginosa, UniProt Q9HTQ0)", "T1 construct": "gene dadA1", "T1 sequence (Q9HTQ0 1-432)": "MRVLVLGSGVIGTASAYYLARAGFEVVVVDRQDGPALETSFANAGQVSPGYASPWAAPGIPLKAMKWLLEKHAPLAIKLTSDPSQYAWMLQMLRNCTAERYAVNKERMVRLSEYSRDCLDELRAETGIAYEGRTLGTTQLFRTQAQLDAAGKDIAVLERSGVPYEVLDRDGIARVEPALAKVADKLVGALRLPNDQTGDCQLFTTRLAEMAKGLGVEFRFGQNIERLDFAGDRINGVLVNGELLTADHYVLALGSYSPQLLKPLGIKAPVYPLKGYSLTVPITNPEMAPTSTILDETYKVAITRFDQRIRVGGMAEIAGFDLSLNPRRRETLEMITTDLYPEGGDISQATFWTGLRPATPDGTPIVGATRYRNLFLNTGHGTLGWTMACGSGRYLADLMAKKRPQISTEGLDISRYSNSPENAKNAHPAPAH", "test": "semicarbazone formation, A248", "type": "biochemical", "details": "7.5 mM D-alanine; 10 mM semicarbazide, 30 uM FAD, 100 uM ubiquinone-1; pH 8.7, 25 C; no DadY"}, "[2]": {"biological_target": "T2, DadY (PA5303) (Pseudomonas aeruginosa, UniProt Q9HTQ1)", "T2 sequence (Q9HTQ1 1-117)": "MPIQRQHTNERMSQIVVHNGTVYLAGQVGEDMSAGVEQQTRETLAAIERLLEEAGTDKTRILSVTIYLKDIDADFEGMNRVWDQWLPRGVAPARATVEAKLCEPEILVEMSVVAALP", "test": "semicarbazone competition assay, A248, imine generated by DadA", "type": "biochemical", "details": "imine made in situ from 7.5 mM D-alanine by 0.5 uM DadA; 5 uM DadY; 10 mM semicarbazide, FAD, ubiquinone-1; pH 8.7, 25 C"}}, "data": [{"compound": "C[C@@H](N)C(=O)O", "note": "[D-alanine]", "values": [{"measurement": "semicarbazone formation, A248", "setting": "[1]", "result": "When DadA used D-alanine as a substrate and semicarbazide was present, a semicarbazone compound was formed"}]}, {"compound": "CC(=N)C(=O)O", "note": "[imino-alanine]", "values": [{"measurement": "semicarbazone competition assay, A248, imine generated by DadA", "setting": "[2]", "result": "DadY could act on the imine derived from D-alanine that was generated by DadA"}]}]}
